From ChEMBL document CHEMBL3856277, “Design, synthesis, and activity evaluation of selective inhibitors of anti-apoptotic Bcl-2 proteins: The effects on the selectivity of the P1 pockets in the active sites” (Bioorg Med Chem Lett, 2016)

How the values were obtained:
[1] = target: Apoptosis regulator Bcl-2 (Homo sapiens, UniProt P10415); experiment: Inhibition of 5-FAM-Bid peptide binding to Bcl-2 (unknown origin) by fluorescence polarization assay
[2] = target: Bcl-2-like protein 1 (Homo sapiens, UniProt Q07817); experiment: Inhibition of 5-FAM-Bid peptide binding to Bcl-XL (unknown origin) by fluorescence polarization assay
Sequence of Bcl-2-like protein 1 (Q07817 whole entry): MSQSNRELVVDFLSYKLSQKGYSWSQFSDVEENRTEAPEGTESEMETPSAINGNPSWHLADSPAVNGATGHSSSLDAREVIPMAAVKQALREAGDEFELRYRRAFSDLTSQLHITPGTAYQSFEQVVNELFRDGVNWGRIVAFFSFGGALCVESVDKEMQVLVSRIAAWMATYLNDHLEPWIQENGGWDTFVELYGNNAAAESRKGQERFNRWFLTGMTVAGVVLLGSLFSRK

[3] = target: Induced myeloid leukemia cell differentiation protein Mcl-1 (Homo sapiens, UniProt Q07820); experiment: Inhibition of 5-FAM-Bid peptide binding to MCL-1 (unknown origin) by fluorescence polarization assay
Sequence of Induced myeloid leukemia cell differentiation protein Mcl-1 (Q07820 whole entry): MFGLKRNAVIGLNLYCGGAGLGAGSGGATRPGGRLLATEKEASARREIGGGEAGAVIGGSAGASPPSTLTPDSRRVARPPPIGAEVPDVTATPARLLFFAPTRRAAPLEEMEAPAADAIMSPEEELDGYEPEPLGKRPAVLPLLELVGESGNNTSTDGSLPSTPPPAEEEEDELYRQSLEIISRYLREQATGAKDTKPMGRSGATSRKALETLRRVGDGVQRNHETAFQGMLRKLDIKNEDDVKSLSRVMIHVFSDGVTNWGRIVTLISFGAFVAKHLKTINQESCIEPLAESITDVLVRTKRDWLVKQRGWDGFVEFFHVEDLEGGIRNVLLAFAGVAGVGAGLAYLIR

[4] = species on record: Homo sapiens; experiment: Selectivity index, ratio of Ki for Bcl-2 (unknown origin) to Ki for Bcl-XL (unknown origin)
[5] = species on record: Homo sapiens; experiment: Selectivity index, ratio of Ki for Bcl-2 (unknown origin) to Ki for MCL-1 (unknown origin)
[6] = Growth inhibition of human HL60 cells after 72 hrs by MTT assay; type: functional, cell-based; conditions: HL-60, 72 h
[7] = Growth inhibition of human U266 cells after 72 hrs by MTT assay; type: functional, cell-based; conditions: U-266, 72 h
[8] = Growth inhibition of human MCF7 cells after 72 hrs by MTT assay; type: functional, cell-based; conditions: MCF7, 72 h
[9] = Growth inhibition of human SKOV3 cells after 72 hrs by MTT assay; type: functional, cell-based; conditions: SK-OV-3, 72 h
[10] = Growth inhibition of human NCI-H23 cells after 72 hrs by MTT assay; type: functional, cell-based; conditions: NCI-H23, 72 h

Sequence of Apoptosis regulator Bcl-2 (P10415 whole entry): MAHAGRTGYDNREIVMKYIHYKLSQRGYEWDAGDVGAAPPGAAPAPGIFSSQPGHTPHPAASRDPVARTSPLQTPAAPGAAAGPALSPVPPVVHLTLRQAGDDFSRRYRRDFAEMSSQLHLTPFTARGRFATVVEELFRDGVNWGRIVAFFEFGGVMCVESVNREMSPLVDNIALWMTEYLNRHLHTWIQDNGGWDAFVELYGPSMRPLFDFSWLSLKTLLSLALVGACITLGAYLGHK

SMILES | Ki [1] [nM] | Ki [2] [nM] | Ki [3] [nM] | Ratio Ki [4] | Ratio Ki [5] | IC50 [6] [nM] | IC50 [7] [nM] | IC50 [8] [nM] | IC50 [9] [nM] | IC50 [10] [nM]
O=C(CCc1ccccc1)Nc1ccc(C(=O)NS(=O)(=O)c2ccc(NCCSc3ccccc3)c([N+](=O)[O-])c2)cc1 | 4400 | 320 | 6900 | 14 | 1 |  |  |  |  | 
C=C(c1ccc(C(=O)Nc2ccc(C(=O)NS(=O)(=O)c3ccc(NCCSc4ccccc4)c([N+](=O)[O-])c3)cc2)cc1)c1cc2c(cc1C)C(C)(C)CCC2(C)C | 3100 | > 20000 | 290 | < 1 | 11 | 2920 | 6950 | 260 | 7830 | 8380
O=C(/C=C/c1ccc(C(F)(F)F)cc1)Nc1ccc(C(=O)NS(=O)(=O)c2ccc(NCCSc3ccccc3)c([N+](=O)[O-])c2)cc1 | 2000 | 510 | 1700 | 4 | 1 |  |  |  |  | 
O=C(/C=C/c1ccccc1C(F)(F)F)Nc1ccc(C(=O)NS(=O)(=O)c2ccc(NCCSc3ccccc3)c([N+](=O)[O-])c2)cc1 | 1700 | 170 | 660 | 10 | 3 |  |  |  |  | 
O=C(Nc1ccc(C(=O)NS(=O)(=O)c2ccc(NCCSc3ccccc3)c([N+](=O)[O-])c2)cc1)c1ccccc1 | 1700 | 630 | 6700 | 3 | < 1 |  |  |  |  | 
CN(C)CC[C@H](CSc1ccccc1)Nc1ccc(S(=O)(=O)NC(=O)c2ccc(N3CCN(Cc4ccccc4-c4ccc(Cl)cc4)CC3)cc2)cc1[N+](=O)[O-] [ABT 737] |  |  |  |  |  | 970 | 27400 | 25300 | 46600 | 71200
O=C(/C=C/c1ccccc1)Nc1ccc(C(=O)NS(=O)(=O)c2ccc(NCCSc3ccccc3)c([N+](=O)[O-])c2)cc1 | 4900 | 140 | 1600 | 35 | 3 |  |  |  |  | 
COc1cccc(/C=C/C(=O)Nc2ccc(C(=O)NS(=O)(=O)c3ccc(NCCSc4ccccc4)c([N+](=O)[O-])c3)cc2)c1 | 1900 | 110 | 800 | 17 | 2 |  |  |  |  | 
Cc1cccc(/C=C/C(=O)Nc2ccc(C(=O)NS(=O)(=O)c3ccc(NCCSc4ccccc4)c([N+](=O)[O-])c3)cc2)c1 | 1700 | 160 | 440 | 11 | 4 |  |  |  |  | 
O=C(Cc1ccccc1)Nc1ccc(C(=O)NS(=O)(=O)c2ccc(NCCSc3ccccc3)c([N+](=O)[O-])c2)cc1 | 4000 | 450 | 5600 | 9 | 1 |  |  |  |  | 
O=C(NS(=O)(=O)c1ccc(NCCSc2ccccc2)c([N+](=O)[O-])c1)c1ccc(C(=O)c2ccccc2)cc1 | 3400 | 330 | 4000 | 10 | 1 |  |  |  |  | 
Cc1ccccc1/C=C/C(=O)Nc1ccc(C(=O)NS(=O)(=O)c2ccc(NCCSc3ccccc3)c([N+](=O)[O-])c2)cc1 | 1700 | 210 | 830 | 8 | 2 |  |  |  |  | 
Cc1cc2c(C(C)C)c(O)c(O)c(C=O)c2c(O)c1-c1c(C)cc2c(C(C)C)c(O)c(O)c(C=O)c2c1O [GOSSYPOL] |  |  | 640 |  |  |  |  |  |  | 
C=C(c1ccc(C(=O)NS(=O)(=O)c2ccc(NCCSc3ccccc3)c([N+](=O)[O-])c2)cc1)c1cc2c(cc1C)C(C)(C)CCC2(C)C | 4200 | > 20000 | 60 | < 1 | 70 | 4860 | 7630 | 2250 | 7640 | 7400
O=C(/C=C/c1cccc(C(F)(F)F)c1)Nc1ccc(C(=O)NS(=O)(=O)c2ccc(NCCSc3ccccc3)c([N+](=O)[O-])c2)cc1 | 2600 | 290 | 5400 | 9 | < 1 |  |  |  |  | 

More lines, main results first:

Ki [1] [nM] | Ki [2] [nM] | Ki [3] [nM] | Ratio Ki [4] | Ratio Ki [5] | SMILES | IC50 [6] [nM] | IC50 [7] [nM] | IC50 [8] [nM] | IC50 [9] [nM] | IC50 [10] [nM]
1500 | 130 | 630 | 12 | 2 | Cc1ccc(/C=C/C(=O)Nc2ccc(C(=O)NS(=O)(=O)c3ccc(NCCSc4ccccc4)c([N+](=O)[O-])c3)cc2)cc1 |  |  |  |  | 
600 | 120 | 14000 | 5 | < 1 | O=C(/C=C/c1ccccc1Cl)Nc1ccc(C(=O)NS(=O)(=O)c2ccc(NCCSc3ccccc3)c([N+](=O)[O-])c2)cc1 |  |  |  |  | 
1100 | 210 | 2700 | 5 | < 1 | O=C(/C=C/c1ccc(Cl)cc1)Nc1ccc(C(=O)NS(=O)(=O)c2ccc(NCCSc3ccccc3)c([N+](=O)[O-])c2)cc1 |  |  |  |  | 
720 | 90 | 8600 | 8 | < 1 | COc1ccccc1/C=C/C(=O)Nc1ccc(C(=O)NS(=O)(=O)c2ccc(NCCSc3ccccc3)c([N+](=O)[O-])c2)cc1 |  |  |  |  | 
1300 | 290 | 1300 | 4 | 1 | O=C(/C=C/c1cccc(Cl)c1)Nc1ccc(C(=O)NS(=O)(=O)c2ccc(NCCSc3ccccc3)c([N+](=O)[O-])c2)cc1 |  |  |  |  | 
1300 | 70 | 590 | 19 | 2 | COc1ccc(/C=C/C(=O)Nc2ccc(C(=O)NS(=O)(=O)c3ccc(NCCSc4ccccc4)c([N+](=O)[O-])c3)cc2)cc1 |  |  |  |  | 
